In patent US4877795A, “4H-quinolizin-4-one compounds useful for the treatment of allergic bronchial asthma, allergic rhinitis atropic dermatitis and the like” (Kissei Pharmaceutical Co., Ltd., priority 1987, dated 1989):

What was measured:
[1] = system: IgE; assay: Determination of Igs produced in in vitro culture: inhibition of IgE secreted by spleen cells (adoptive secondary immune response to DNP-As), ELISA; format: cell-based, BALB/c mice; details: 4 days culture; for inhibition at 1 µg/mL / inhibition at 0.25 µg/mL / inhibition at 5 µg/mL / inhibition at 2.5 µg/mL / inhibition at 10 µg/mL: Mus musculus, 96 h; for inhibition at 0.25 µg/mL: 0.25 μg/ml; for inhibition at 5 µg/mL: 5.0 μg/ml; for inhibition at 2.5 µg/mL: 2.5 μg/ml; for inhibition at 10 µg/mL: 10.0 μg/ml
Procedure, shortened: (§1)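 Donor BALB/c mice primed i.p. with 5 μg DNP-As on alum; 5×10^7 spleen cells transferred i.v. into 600-rad-irradiated recipients, boosted likewise. After 4 weeks, recipient spleen cells (5×10^6 cells/ml) cultured ± compound 4 days at 37° C; secreted IgG/IgE quantified by ELISA, % inhibition vs untreated culture.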

[2] = system: IgG; assay: Determination of Igs produced in in vitro culture: inhibition of IgG secreted by spleen cells (adoptive secondary immune response to DNP-As), ELISA; format: cell-based, BALB/c mice; details: 4 days culture; for inhibition at 1 µg/mL / inhibition at 0.25 µg/mL / inhibition at 5 µg/mL / inhibition at 2.5 µg/mL / inhibition at 10 µg/mL: Mus musculus, 96 h; for inhibition at 0.25 µg/mL: 0.25 μg/ml; for inhibition at 5 µg/mL: 5.0 μg/ml; for inhibition at 2.5 µg/mL: 2.5 μg/ml; for inhibition at 10 µg/mL: 10.0 μg/ml
Procedure, shortened: as §1

For `CSc1c(C#N)c(=O)n2ccccc2c1C(=O)CCCCc1ccccc1` [S-107, 3-Cyano-2-methylthio-1-(5-phenylvaleryl)-4H-quinolizin-4-one], the inhibition at 1 µg/mL ([1]; 1.0 μg/ml) was 80% and the inhibition at 1 µg/mL ([2]; 1.0 μg/ml) was 43%.
`CSc1c(C#N)c(=O)n2ccccc2c1C(=O)OCC(c1ccccc1)c1ccccc1` [S-44, 2',2'-Diphenylethyl 3-cyano-2-methylthio-4H-quinolizin-4-one-1-carboxylate] showed an inhibition at 1 µg/mL ([1]; 1.0 μg/ml) of 54% and an inhibition at 1 µg/mL ([2]; 1.0 μg/ml) of 18%.
In the case of `CSc1c(C#N)c(=O)n2ccccc2c1C(=O)OCc1ccc(Br)cc1` [S-23, 4'-Bromobenzyl 3-cyano-2-methylthio-4H-quinolizin-4-one-1-carboxylate], the inhibition at 1 µg/mL ([1]; 1.0 μg/ml) is reported as 79% and the inhibition at 1 µg/mL ([2]; 1.0 μg/ml) is reported as 34%.
With `COc1cccc(COC(=O)c2c(SC)c(C#N)c(=O)n3ccccc23)c1` [S-35, 3'-Methoxybenzyl 3-cyano-2-methylthio-4H-quinolizin-4-one-1-carboxylate] the inhibition at 1 µg/mL ([1]; 1.0 μg/ml) was 64% and the inhibition at 1 µg/mL ([2]; 1.0 μg/ml) was 45%.
For `N#Cc1c(SCc2ccccc2)c(C(=O)N2CCC(c3ccccc3)CC2)c2ccccn2c1=O` (single isomer, unassigned) [S-83B, 2-Benzylthio-3-cyano-1-(4-phenylpiperidinocarbonyl)-4H-quinolizin-4-one], the inhibition at 0.25 µg/mL [1] was 41% and the inhibition at 0.25 µg/mL [2] was 10%.
`CSc1c(C#N)c(=O)n2ccccc2c1C(=O)OC1CCCCCCC1` [S-20, Cyclooctyl 3-cyano-2-methylthio-4H-quinolizin-4-one-1-carboxylate] was tested, and the inhibition at 5 µg/mL [1] was 84% and the inhibition at 5 µg/mL [2] was 52%.
`CSc1c(C#N)c(=O)n2ccccc2c1C(=O)N(Cc1ccccc1)Cc1ccccc1` [S-60, 3-Cyano-N,N-dibenzyl-2-methylthio-4H-quinolizin-4-one-1-carboxamide] showed an inhibition at 1 µg/mL ([1]; 1.0 μg/ml) of 58% and an inhibition at 1 µg/mL ([2]; 1.0 μg/ml) of 25%.
With `CSc1c(C#N)c(=O)n2ccc(C)cc2c1C(=O)CCCCc1ccccc1` [S-108, 3-Cyano-8-methyl-2-methylthio-1-(5-phenylvaleryl)-4H-quinolizin-4-one] the inhibition at 1 µg/mL ([1]; 1.0 μg/ml) was 60% and the inhibition at 1 µg/mL ([2]; 1.0 μg/ml) was 35%.
Compound `CSc1c(C#N)c(=O)n2ccccc2c1C(=O)OC(C)c1ccc(Br)cc1` (stereo not shown) [S-30, 1'-(4-Bromophenyl)ethyl 3-cyano-2-methylthio-4H-quinolizin-4-one-1-carboxylate] has an inhibition at 0.25 µg/mL [1] of 45% and an inhibition at 0.25 µg/mL [2] of 27%.
With `CSc1c(C#N)c(=O)n2ccccc2c1C(=O)N(Cc1ccccc1)C(C)C` [S-68, N-Benzyl-3-cyano-N-isopropyl-2-methylthio-4H-quinolizin-4-one-1-carboxamide] the inhibition at 2.5 µg/mL [1] was 41% and the inhibition at 2.5 µg/mL [2] was 7%.
For `N#Cc1c(SCc2ccccc2)c(C(=O)N2CCC(Cc3ccccc3)CC2)c2ccccn2c1=O` (single isomer, unassigned) [S-84A, 1-(4-Benzylpiperidinocarbonyl)-2-benzylthio-3-cyano-4H-quinolizin-4-one], the inhibition at 1 µg/mL ([1]; 1.0 μg/ml) was 58% and the inhibition at 1 µg/mL ([2]; 1.0 μg/ml) was 22%.
With `CSc1c(C#N)c(=O)n2ccccc2c1C(=O)Cc1ccc(Cl)cc1` [S-96, 1-(4-Chlrophenylacetyl)-3-cyano-2-methylthio-4H-quinolizin-4-one] the inhibition at 5 µg/mL [1] was 41% and the inhibition at 5 µg/mL [2] was 12%.
Compound `CSc1c(C#N)c(=O)n2ccccc2c1C(=O)N1CCC(c2ccccc2)CC1` [S-78, 3-Cyano-2-methylthio-1-(4-phenylpiperidinocarbonyl)-4H-quinolizin-4-one] has an inhibition at 2.5 µg/mL [1] of 60% and an inhibition at 2.5 µg/mL [2] of 16%.
Compound `CSc1c(C#N)c(=O)n2ccccc2c1C(=O)OC1CCCCCC1` [S-19, Cycloheptyl 3-cyano-2-methylthio-4H-quinolizin-4-one-1-carboxylate] has an inhibition at 5 µg/mL [1] of 71% and an inhibition at 5 µg/mL [2] of 27%.
With `CSc1c(C#N)c(=O)n2ccccc2c1C(=O)N1CCN(Cc2ccccc2)CC1` [S-90, 1-(4-Benzyl-1-piperadinylcarbonyl)-3-cyano-2-methylthio-4H-quinolizin-4-one] the inhibition at 5 µg/mL [1] was 45% and the inhibition at 5 µg/mL [2] was 14%.
In the case of `N#Cc1c(SCc2ccccc2)c(C(=O)N2CCC(Cc3ccccc3)CC2)c2ccccn2c1=O` (single isomer, unassigned) [S-84B, 1-(4-Benzylpiperidinocarbonyl)-2-benzylthio-3-cyano-4H-quinolizin-4-one], the “Inhibition % of IgE” value ([1]; 1.0 μg/ml) is reported as 58% and the “Inhibition % of IgG” value ([2]; 1.0 μg/ml) is reported as 32%.
Work on `C#CCOC(=O)c1c(SC)c(C#N)c(=O)n2ccccc12` [S-6, 2'-Propynl 3-cyano-2-methylthio-4H-quinolizin-4-one-1-carboxylate] yielded an inhibition at 10 µg/mL [1] of 63% and an inhibition at 10 µg/mL [2] of 35%.
Compound `CSc1c(C#N)c(=O)n2ccccc2c1C(=O)OCCSc1ccccc1` [S-55, 2'-Phenylthioethyl 3-cyano-2-methylthio-4H-quinolizin-4-one-1-carboxylate] has an inhibition at 0.25 µg/mL [1] of 51% and an inhibition at 0.25 µg/mL [2] of 29%.
Compound `CSc1c(C#N)c(=O)n2ccccc2c1C(=O)Nc1nc(-c2ccccc2)cs1` [S-75, 3-Cyano-2-methylthio-N-(4-phenyl-2-thiazolyl)-4H-quinolizin-4-one-1-carboxamide] has an inhibition at 2.5 µg/mL [1] of 50% and an inhibition at 2.5 µg/mL [2] of 25%.
With `CSc1c(C#N)c(=O)n2ccccc2c1C(=O)N(C(C)C)C1CCCCC1` [S-69, 3-Cyano-N-cyclohexyl-N-isopropyl-2-methylthio-4H-quinolizin-4-one-1-carboxamide] the inhibition at 2.5 µg/mL [1] was 56% and the inhibition at 2.5 µg/mL [2] was 22%.
In the case of `CSc1c(C#N)c(=O)n2ccccc2c1C(=O)N(CCNc1ccccc1)c1ccccc1` [S-67, 3-Cyano-2-methylthio-N-phenyl-N-(2-phenylaminoethyl)-4H-quinolizin-4-one-1-carboxamide], the inhibition at 2.5 µg/mL [1] is reported as 68% and the inhibition at 2.5 µg/mL [2] is reported as 46%.
`CSc1c(C#N)c(=O)n2ccccc2c1C(=O)N1CCC2CCCCC21` (single isomer, unassigned) [S-85B, 3-Cyano-2-methylthio-1-(perhydroindol-1-yl-carbonyl)-4H-quinolizin-4-one] gave an inhibition at 2.5 µg/mL [1] of 39% and an inhibition at 2.5 µg/mL [2] of 19%.
`CCCC(=O)c1c(SC)c(C#N)c(=O)n2ccccc12` [S-93, 1-Butyryl-3-cyano-2-methylthio-4H-quinolizin-4-one] was tested, and the inhibition at 10 µg/mL [1] was 62% and the inhibition at 10 µg/mL [2] was 31%.
